Values quoted from earlier work as cited in patent US20060165788A1, “Lercanidipine pH dependent pulsatile release compositions” (priority 2004, published 2006).

Legend:
Caco-2 cell = Caco-2 cell apparatus
[1] = not given; remark: listed apart in the source
[2] = for time to maximum concentration (Tmax): form (I) and form (II) compared with each other

| permeability, Paap (Caco-2 cell) [cm/s] | solubility at pH 5 | increase of amount of lercanidipine absorbed with simultaneous intake of food ([1]; in vivo) | presystemic first pass elimination ([1]; in vivo) | peak plasma level Tmax ([1]; oral administration, immediate release form) [h] | time to maximum concentration (Tmax) [2] | bioavailability ([2]; form (II) compared to Form (I)) | plasma concentration (AUCo-t) ([2]; form (II) compared to Form (I)) | SMILES |
| --- | --- | --- | --- | --- | --- | --- | --- | --- |
| 5e-08 | less than 20 μg/ml | between three and four times | extensive | 1 to 3 |  |  |  | COC(=O)C1=C(C)NC(C)=C(C(=O)OC(C)(C)CN(C)CCC(c2ccccc2)c2ccccc2)C1c1cccc([N+](=O)[O-])c1.Cl (stereo not drawn) [Lercanidipine, methyl 1,1,N-trimethyl-N-(3,3-diphenylpropyl)-2-aminoethyl 1,4-dihydro-2,6-dimethyl-4-(3-nitrophenyl)pyridine-3,5-dicarboxylate] |
|  |  |  |  |  | shorter time to maximum concentration |  |  | COC(=O)C1=C(C)NC(C)=C(C(=O)OC(C)(C)CN(C)CCC(c2ccccc2)c2ccccc2)C1c1cccc([N+](=O)[O-])c1 (stereo not drawn) [form (I)] |
|  |  |  |  |  | delayed time of maximum concentration | higher bioavailability | higher plasma concentration | COC(=O)C1=C(C)NC(C)=C(C(=O)OC(C)(C)CN(C)CCC(c2ccccc2)c2ccccc2)C1c1cccc([N+](=O)[O-])c1 (stereo not drawn) [form (II)] |
